Laboratory results from patent US6974800B1, “Formulations comprising an inhibitor of carboxypeptidase U and A thrombin inhibitor” (AstraZeneca AB, priority 1999, dated 2005).

System: lung fibrin deposition
Assay: Lung fibrin deposition in the anaesthetized rat (endotoxin + batroxobin, 125I-fibrinogen)
Format: in vivo, rat (Sprague Dawley)
Protocol: Batroxobin No. 520 CRY (American Diagnostica Inc., Greenwich, Conn., USA) was kept at 8° C. both while lyophilized and when dissolved in saline to a concentration of 10 BU/ml. It was used within 5 days in the experiments. The remaining drug was freezed and kept at […] for a maximum of 30 days.
Endotoxin L-3129 (Sigma, St. Louis, Mo., USA) was dissolved in saline to a concentration of 50 μg/ml. A fresh solution was prepared for each experiment.
^125I-labelled human fibrinogen (Amersham, Little Chalfont, Buck., UK) was stored at 8° C. while lyophilized. After dissolving in saline/aq.dest. (80/20 v/v) to a stock solution of approx. 0.8 MBq/ml (20 μCi/ml) it was divided into aliquots (one for each experiment), quickly freezed and stored at −20° C. It was used in the experiments within 14 days after the production date.
The thrombin inhibitor inogatran was dissolved in 40% (w/w) cyclodextrin (HPβCD) to a concentration of 5 mg/ml and stored at −20° C. It was further diluted with 40% cyclo-dextrin before use in the different experiments. In the studies the drug was administered subcutaneously.
The thrombin inhibitor melagatran was dissolved in saline.
The CPU inhibitors […] and Compound A were dissolved in deoxygenated saline. The saline was deoxygenated by ultrasonication for 20 min and subsequently by passing nitrogen for another 20 min. The solutions were always fresh-made for each experiment. The CPU inhibitor was administered to the rats as an i.v. infusion for 5 min.
Male rats of the Sprague Dawley strain (Charles River, Sweden) with a body weight of 325–425 g were used in these experiments. The animals were allowed to accommodate at AstraZeneca R&D, Mölndal, Sweden for 1 week before use.
Anaesthesia was induced and maintained by Inactin 100 mg/kg i.p.
Two catheters were inserted in the left jugular vein, one for administration of ^125I-fibrinogen and batroxobin and the other for administration of endotoxin and CPU inhibitor or their corresponding vehicles. A third catheter was inserted in the carotid artery for blood sampling and measurement of the mean arterial blood pressure and heart rate. To avoid blood clots in the arterial catheter a slow saline infusion (approx. 1.0 ml/kg*h) was maintained throughout the experiment. The rats were tracheotomized in order to facilitate spontaneous breathing. The body temperature was monitored and maintained at 38° C. by external heating.
The animals were given an i.v. injection of endotoxin (50 μg/kg) at the start of the experiment. Two hours later the thrombin inhibitor or its vehicle was injected subcutaneously and another 15 min later ^125I-fibrinogen (0.04 MBq) was given as an i.v. injection. An infusion lasting for five minutes of the CPU-inhibitor or its vehicle was started after 5 min. After 5 min, batroxobin (10 BU/kg) was given as an i.v. bolus injection for one minute.
Blood samples for determination of ^125I-content were taken in all experiments just before and 5, 20 and 30 min after the batroxobin administration. At the end of the experiment the lungs were excised, the tissue was gently washed in saline and thereafter blotted and weighed. The ^125I-content in the tissue and blood samples was determined, using a Wallac 1282 Compugamma counter. The ^125I-concentration in plasma and in the lungs was expressed as a percentage of the radioactivity in the reference arterial blood sample taken just prior to the batroxobin injection.
For each of the four different dose combinations, only CPU inhibitor, only thrombin inhibitor, thrombin inhibitor together with CPU inhibitor at 0.2 and 0.28 μmol/kg respectively, separate E-max models were fitted. The models were fitted on a logarithmic scale giving estimates of the median effective dose, i.e., the dose where half of the population has 50% effect.

## N=C(N)c1ccc(CNC(=O)[C@@H]2CCN2C(=O)[C@H](NCC(=O)O)C2CCCCC2)cc1 [melagatran, HOOC—CH2—(R)Cgl-Aze-Pab-H]
Table II, thrombin inhibitor alone, 0.23 μmol/kg s.c.
  Remaining fibrin after treatment: 97 ± 12.4 n = 6%
Table II, thrombin inhibitor alone, 0.35 μmol/kg
  Remaining fibrin after treatment: 77 ± 22.4 n = 4%
Table II, thrombin inhibitor alone, 0.58 μmol/kg
  Remaining fibrin after treatment: 62 ± 17.0 n = 2%
Table II, thrombin inhibitor alone, 1.75 μmol/kg
  Remaining fibrin after treatment: 31 ± 13.3 n = 4%
Table II, thrombin inhibitor alone, 3.5 μmol/kg
  Remaining fibrin after treatment: 55 ± 21.7 n = 4%
Table III, thrombin inhibitor alone, 0.18 μmol/kg
  Remaining fibrin after treatment: 110 ± 15.2 n = 3%
Table III, thrombin inhibitor alone, 0.23 μmol/kg
  Remaining fibrin after treatment: 98 ± 11.5 n = 7%
Table III, thrombin inhibitor alone, 0.30 μmol/kg
  Remaining fibrin after treatment: 87 ± 27.6 n = 3%
Table III, thrombin inhibitor alone, 0.35 μmol/kg
  Remaining fibrin after treatment: 77 ± 22.4 n = 4%

## N=C(N)NCCSCC(CS)C(=O)O (racemic) [MERGETPA, DL-2-mercaptomethyl-3-guanidinoethylthiopropanoic acid]
Table I, CPU inhibitor alone, 8.4 μmol/kg i.v. infusion, 100% = no effect
  Remaining fibrin after treatment: 90 ± 18.1%
Table I, CPU inhibitor alone, 21.1 μmol/kg i.v. infusion
  Remaining fibrin after treatment: 37 ± 19.3%
Table I, CPU inhibitor alone, 33.7 μmol/kg i.v. infusion
  Remaining fibrin after treatment: 23 ± 17.3%

## Nc1ccc(CC(CS)C(=O)O)cn1 (stereo not drawn) [compound A, 3-(6-amino-pyridin-3-yl)-2-mercaptomethyl-propanoic acid]
Table II, CPU inhibitor alone, 0.20 μmol/kg i.v. infusion
  Remaining fibrin after treatment: 100 ± 25.8%
Table II, CPU inhibitor alone, 0.28 μmol/kg
  Remaining fibrin after treatment: 88 ± 23.2%
Table II, CPU inhibitor alone, 0.4 μmol/kg
  Remaining fibrin after treatment: 87 ± 50.6 n = 6%
Table II, CPU inhibitor alone, 2.0 μmol/kg
  Remaining fibrin after treatment: 49 ± 30.0 n = 7%
Table II, CPU inhibitor alone, 4.0 μmol/kg
  Remaining fibrin after treatment: 15 ± 9.3 n = 4%
Table II, CPU inhibitor alone, 20.0 μmol/kg
  Remaining fibrin after treatment: 7 ± 1.4 n = 2%
Table III, CPU inhibitor alone, 0.20 μmol/kg
  Remaining fibrin after treatment: 97 ± 24.1%
Table III, CPU inhibitor alone, 0.28 μmol/kg
  Remaining fibrin after treatment: 81 ± 24.5%

## N=C(N)NCCCNC(=O)[C@@H]1CCCCN1C(=O)[C@@H](CC1CCCCC1)NCC(=O)O [inogatran, HOOC—CH2—(R)Cha-Pic-Nag-H]
Table I, thrombin inhibitor alone, 2.3 μmol/kg s.c.
  Remaining fibrin after treatment: 94 ± 20.2 n = 6%
Table I, thrombin inhibitor alone, 3.4 μmol/kg s.c.
  Remaining fibrin after treatment: 72 ± 23.6 n = 6%
Table I, thrombin inhibitor alone, 5.7 μmol/kg s.c.
  Remaining fibrin after treatment: 41 ± 20.3 n = 6%
Table I, thrombin inhibitor alone, 17.2 μmol/kg s.c.
  Remaining fibrin after treatment: 39 ± 15.9 n = 6%
